Experimental data taken from patent publication US6355640B1, “Pyrazolopyridine adenosine antagonists” (Fujisawa Pharmaceutical Co., Ltd., priority 1993, dated 2002).

Q: Which melting point does the source give for `O=C(O)C[C@@H]1CCCC[C@H]1n1nc(-c2c(-c3ccccc3)nn3ccccc23)ccc1=O` (relative stereo) [Example 39, trans-3-[2-(2-Carboxymethylcyclohexyl)-3-oxo-2,3-dihydropyridazin-6-yl]-2-phenylpyrazolo[1,5-a]pyridine] here?
A: 238 to 240 °C

Q: For `CON=C1CCCCC1n1nc(-c2c(-c3ccccc3)nn3ccccc23)ccc1=O` (centres unmarked) [Example 90, 3-[2-{2-(Methoxyimino)cyclohexyl}-3-oxo-2,3-dihydropyridazin-6-yl]-2-phenylpyrazolo[1,5-a]pyridine], which melting point is on record?
A: 85 to 87 °C

Q: Which melting point does the source give for `COC(=O)/C=C1\CCCCC1n1nc(-c2c(-c3ccccc3)nn3ccccc23)ccc1=O` (centres unmarked) [Example 31, (E)-3-[2-(2-methoxycarbonylmethylenecyclohexyl)-3-oxo-2,3-dihydropyridazin-6-yl]-2-phenylpyrazolo[1,5-a]pyridine] here?
A: 156 to 157 °C

Q: For `O=C(O)CN1CCC(n2nc(-c3c(-c4ccccc4)nn4ccccc34)ccc2=O)C1=O` (centres unmarked) [Example 42, 3-[2-(1-Carboxymethyl-2-oxo-pyrrolidin-3-yl)-3-oxo-2,3-dihydropyridazin-6-yl]-2-phenylpyrazolo[1,5-a]pyridine], which melting point is on record?
A: 250 to 251 °C

Q: For `CCCn1c(=O)cc(-n2nc(-c3c(-c4ccccc4)nn4ccccc34)ccc2=O)n(CC(=O)OC)c1=O` [Example 28, 3-[2-(2,4-Dioxo-1-methoxycarbonylmethyl-3-propyl-1,2,3,4-tetrahydropyrimidin-6-yl)-3-oxo-2,3-dihydropyridazin-6-yl]-2-phenylpyrazolo[1,5-a]pyridine], which melting point is on record?
A: 143 to 145 °C

Q: For `O=C(CC1=C(n2nc(-c3c(-c4ccccc4)nn4ccccc34)ccc2=O)CCCC1)N1CCNCC1` [Example 113, 3-[2-{2-(piperazin-1-ylcarbonyl)methyl-1-cyclohexenyl}-3-oxo-2,3-dihydropyridazin-6-yl]-2-phenylpyrazolo[1,5-a]pyridine], which melting point is on record?
A: 208.5 to 209 °C

Q: Which melting point does the source give for `O=C(CC1=C(n2nc(-c3c(-c4ccccc4)nn4ccccc34)ccc2=O)CCCC1)N1CCSCC1` [Example 80, 3-[2-{2-(Thiomorpholin-4-ylcarbonyl)methyl-1-cyclohexenyl}-3-oxo-2,3-dihydropyridazin-6-yl]-2-phenylpyrazolo[1,5-a]pyridine] here?
A: 180.5 to 182.5 °C

Q: With `N#C/C=C1/CCCCC1n1nc(-c2c(-c3ccccc3)nn3ccccc23)ccc1=O` (stereo not drawn) [Example 96 (Z)-isomer, (Z)-3-[2-{2-Cyanomethylenecyclohexyl}-3-oxo-2,3-dihydropyridazin-6-yl]-2-phenylpyrazolo[1,5-a]pyridine] as the compound, how does the melting point read?
A: 70 to 72 °C

Q: With `CC(C)(C)OC(=O)CC1=CCCCC1n1nc(-c2c(-c3ccccc3)nn3ccccc23)ccc1=O` (centres unmarked) [Example 95(2), 3-[2-{2-(tert-Butoxycarbonylmethyl)-2-cyclohexen-1-yl}-3-oxo-2,3-dihydropyridazin-6-yl]-2-phenylpyrazolo-[1,5-a]pyridine] as the compound, how does the melting point read?
A: 145.5 to 147 °C

Q: For `NC(=O)CC1=C(n2nc(-c3c(-c4ccccc4)nn4ccccc34)ccc2=O)CCCC1` [Example 69, 3-[2-(2-Carbamoylmethyl-1-cyclohexenyl)-3-oxo-2,3-dihydropyridazin-6-yl]-2-phenylpyrazolo[1,5-a]pyridine], which melting point is on record?
A: 204 to 205 °C

Q: For `O=c1ccc(-c2c(-c3ccccc3)nn3ccccc23)nn1C1=C(CCO)CCCC1` [Example 105, 3-[2-{2-(2-hydroxyethyl)-1-cyclohexenyl}-3-oxo-2,3-dihydropyridazin-6-yl]-2-phenylpyrazolo[1,5-a]pyridine], which melting point is on record?
A: 198 to 199 °C

Q: For `O=c1ccc(-c2c(-c3ccccc3)nn3ccccc23)nn1C1CCCCC1=Cc1nnn[nH]1` (centres unmarked) [Example 111, 3-[2-{2-(1H-tetrazol-5-yl)methylenecyclohexyl}-3-oxo-2,3-dihydropyridazin-6-yl]-2-phenylpyrazolo[1,5-a]pyridine], which melting point is on record?
A: 129 to 131 °C

Q: With `NN=C1CCCCC1n1nc(-c2c(-c3ccccc3)nn3ccccc23)ccc1=O` (centres unmarked) [Example 88, 3-[2-(2-Hydrazonocyclohexyl)-3-oxo-2,3-dihydropyridazin-6-yl]-2-phenylpyrazolo[1,5-a]pyridine] as the compound, how does the melting point read?
A: 161 to 162 °C

Q: For `O=C(O)CON=C1CCCCC1n1nc(-c2c(-c3ccccc3)nn3ccccc23)ccc1=O` (centres unmarked) [Example 57, 3-[2-(2-Carboxymethoxyiminocyclohexyl)-3-oxo-2,3-dihydropyridazin-6-yl]-2-phenylpyrazolo[1,5-a]pyridine], which melting point is on record?
A: 208 °C (dec.)

Q: For `O=C1NCCC1n1nc(-c2c(-c3ccccc3)nn3ccccc23)ccc1=O` (centres unmarked) [Example 23, 3-[2-(2-Oxopyrrolidin-3-yl)-3-oxo-2,3-dihydropyridazin-6-yl]-2-phenylpyrazolo[1,5-a]pyridine], which melting point is on record?
A: 133 to 134 °C (dec.)

Q: Which melting point does the source give for `O=C1CCCCCC1n1nc(-c2c(-c3ccccc3)nn3ccccc23)ccc1=O` (centres unmarked) [Example 11, 3-[2-(2-Oxocycloheptyl)-3-oxo-2,3-dihydropyridazin-6-yl]-2-phenylpyrazolo[1,5-a]pyridine] here?
A: 112 to 114 °C

Q: With `CNC1CCN(C(=O)CC2=C(n3nc(-c4c(-c5ccccc5)nn5ccccc45)ccc3=O)CCCC2)CC1` (hydrate or solvate) [Example 86, 3-[2-{2-(4-Methylaminopiperidinocarbonyl)methyl-1-cyclohexenyl}-3-oxo-2,3-dihydropyridazin-6-yl]-2-phenylpyrazolo[1,5-a]pyridine] as the compound, how does the melting point read?
A: 101 to 105 °C

Q: With `O=C(O)CCC1=C(n2nc(-c3c(-c4ccccc4)nn4ccccc34)ccc2=O)CCCC1` [Example 52, 3-[2-{2-(2-carboxyethyl)-1-cyclohexenyl}-3-oxo-2,3-dihydropyridazin-6-yl]-2-phenylpyrazolo[1,5-a]-pyridine] as the compound, how does the melting point read?
A: 184 to 185 °C

Q: For `O=C1CCCCC1n1nc(-c2c(-c3ccccc3)nn3ccccc23)ccc1=O` (single isomer, unassigned) [Example 2 (more polar compound), 3-[2-(2-oxocyclohexyl)-3-oxo-2,3-dihydropyridazin-6-yl]-2-phenylpyrazolo[1,5-a]pyridine], which melting point is on record?
A: 166 to 168 °C

Q: With `O=C(O)[C@H]1CCC[C@H](n2nc(-c3c(-c4ccccc4)nn4ccccc34)ccc2=O)C1` (relative stereo) [Example 41, trans-3-(2-(3-Carboxycyclohexyl)-3-oxo-2,3-dihydropyridazin-6-yl]-2-phenylpyrazolo[1,5-a]pyridine] as the compound, how does the melting point read?
A: 218 to 222 °C

Q: With `O=C(CC1=C(n2nc(-c3c(-c4ccccc4)nn4ccccc34)ccc2=O)CCCC1)N1CCOCC1` [Example 83, 3-[2-(2-Morpholinocarbonylmethyl-1-cyclohexenyl)-3-oxo-2,3-dihydropyridazin-6-yl]-2-phenylpyrazolo[1,5-a]-pyridine] as the compound, how does the melting point read?
A: 202 to 204 °C

Q: With `O=C(O)C[C@H]1CCCC[C@H]1n1nc(-c2c(-c3ccccc3)nn3ccccc23)ccc1=O` (relative stereo) [Example 38, cis-3-[2-(2-carboxymethylcyclohexyl)-3-oxo-2,3-dihydropyridazin-6-yl]-2-phenylpyrazolo[1,5-a]pyridine] as the compound, how does the melting point read?
A: 252 to 253 °C

Q: Which melting point does the source give for `O=C(CC1=C(n2nc(-c3c(-c4ccccc4)nn4ccccc34)ccc2=O)CCCC1)N1CCN(C(c2ccccc2)(c2ccccc2)c2ccccc2)CC1` [Example 82, 3-[2-{2-(4-Triphenylmethylpiperazin-1-ylcarbonyl)methyl-1-cyclohexenyl}-3-oxo-2,3-dihydropyridazin-6-yl]-2-phenylpyrazolo[1,5-a]pyridine] here?
A: 249.5 to 250.5 °C
